Measurements published in patent publication EP4603105A1, “PHARMACEUTICAL COMPOSITION CONTAINING CYCLIC COMPOUND HAVING SELECTIVE KRAS INHIBITORY EFFECT AGAINST HRAS AND NRAS” (CHUGAI SEIYAKU KABUSHIKI KAISHA, priority 2022, dated 2024).
*1 amine or outer side, *2 acyl side, *3 side chain or, on linkers, in order; H or OH if unused. Where a SMILES comes first, the peptide text is derived from it. Bridges are numbered along the chain shown (N, C = ends). [ ]: non-standard residue; d: D form. The star is where a group is joined. hPhe(3,5-F2-4-CF3) = N[C@@H](CCc1cc(F)c(C(F)(F)F)c(F)c1)C(=O)O; hPhe(3-Cl-4-CF3) = N[C@@H](CCc1ccc(C(F)(F)F)c(Cl)c1)C(=O)O; X39 = O=C([C@H](Cc1ccc(C(F)(F)F)cc1)N(CC1CCC1)[*:1])[*:2]; NPrPhe(4-CF3) = CCCN[C@@H](Cc1ccc(C(F)(F)F)cc1)C(=O)O; NMeGly(cPent) = CN[C@H](C(=O)O)C1CCCC1; Gly(cPent) = N[C@H](C(=O)O)C1CCCC1; NMeD = CN[C@@H](CC(=O)O)C(=O)O; NMeL = CN[C@@H](CC(C)C)C(=O)O; αMeS = C[C@](N)(CO)C(=O)O; Morpholide = C1CN(*)CCO1; NMeA = CN[C@@H](C)C(=O)O; Ac5c = NC1(C(=O)O)CCCC1; Aze = O=C(O)[C@@H]1CCN1; Ac4c = NC1(C(=O)O)CCC1; Sar = CNCC(=O)O; Allyl = C=CC*

Legend:
[1] = target: GDP-bound NRAS wild-type protein (Homo sapiens, UniProt P01111); test: Binding to NRAS by surface plasmon resonance (SPR), KD and KD ratio to KRAS
In short: (§1)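 SPR, 30°C: Avi-biotin RAS·GDP captured via Biotin CAPture (~100–300 RU); running buffer HBS pH 7.4, 1 mM DTT, 10 mM MgCl2, 0.01% Tween 20, 10 µM GDP, 4% DMSO. Single-cycle kinetics, 100 µL/min, 75 s injections; 1:1 model → KD.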

HRAS wild-type protein = HRAS wild-type protein (Homo sapiens, UniProt P01112); test: Binding to HRAS by surface plasmon resonance (SPR), KD and KD ratio to KRAS
In short: as §1

[2] = system: human lung cancer strain NCI-H441; format: cell-based
In short: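 Proliferation was scored by […] measured after the reagent was added to cultures kept at 37°C in 5% carbon dioxide.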

[3] = ratio of KD for GDP-bound NRAS wild-type protein to KD for KRAS
[4] = ratio of KD for HRAS wild-type protein to KD for KRAS
[5] = ratio of the KD value with respect to GDP-bound NRAS wild-type protein to the KD value with respect to KRAS
[6] = ratio of the KD value with respect to HRAS wild-type protein to the KD value with respect to KRAS

Sequence of HRAS wild-type protein (P01112 whole entry): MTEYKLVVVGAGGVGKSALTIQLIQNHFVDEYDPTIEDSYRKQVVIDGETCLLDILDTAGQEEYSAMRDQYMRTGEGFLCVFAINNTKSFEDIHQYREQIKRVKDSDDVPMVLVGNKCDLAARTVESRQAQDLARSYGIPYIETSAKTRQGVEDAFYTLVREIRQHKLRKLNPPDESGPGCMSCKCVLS
Sequence of GDP-bound NRAS wild-type protein (P01111 whole entry): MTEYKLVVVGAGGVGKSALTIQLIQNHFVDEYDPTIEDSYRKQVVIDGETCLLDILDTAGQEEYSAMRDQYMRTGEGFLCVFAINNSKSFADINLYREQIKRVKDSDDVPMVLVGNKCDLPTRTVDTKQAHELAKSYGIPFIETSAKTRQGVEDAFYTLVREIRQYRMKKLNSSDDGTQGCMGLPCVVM

Structure (SMILES) | NRAS /KRAS [1, 3] | HRAS /KRAS (HRAS wild-type protein; [4]) | IC50 [2] [nM] | NRAS /KRAS [1, 5] | HRAS /KRAS (HRAS wild-type protein; [6]) | NRAS /KRAS ([1]; ratio of KD value for GDP-bound NRAS wild-type protein to KD value for KRAS (SPR)) | HRAS /KRAS (HRAS wild-type protein; ratio of KD value for HRAS wild-type protein to KD value for KRAS (SPR))
CC[C@H](C)[C@@H]1NC(=O)[C@H](CC(C)C)N(C)C(=O)C[C@@H](C(=O)N2CCOCC2)N(C)C(=O)[C@H](C2CCCC2)N(C)C(=O)C2(CCCC2)NC(=O)[C@@H]2CCCN2C(=O)[C@H](CCc2ccc(C(F)(F)F)c(Cl)c2)NC(=O)CN(C)C(=O)[C@H](Cc2ccc(C(F)(F)F)cc2)N(CC2CCC2)C(=O)[C@@H]2CCN2C(=O)[C@H](C)N(C)C1=O [PP0109] ([NMeL]I[NMeA][Aze][X39][Sar][hPhe(3-Cl-4-CF3)]P[Ac5c][NMeGly(cPent)][NMeD]-Morpholide; lactam N-11) | C (A compound having a KD ratio of 0.1 or more and less than 3 is denoted as C) | B (a compound having 3 or more and less than 10 is denoted as B) | 21.7 |  |  |  | 
C=CCOC[C@]1(C)NC(=O)[C@@H]2CCCN2C(=O)[C@H](CCc2cc(F)c(C(F)(F)F)c(F)c2)NC(=O)CN(C)C(=O)[C@H](Cc2ccc(C(F)(F)F)cc2)N(CCC)C(=O)[C@@H]2CCN2C(=O)CN(C)C(=O)[C@H]([C@@H](C)CC)NC(=O)[C@H](CC(C)C)N(C)C(=O)C[C@@H](C(=O)N2CCOCC2)N(C)C(=O)[C@H](C2CCCC2)N(C)C1=O [PP0799] ([NMeL]I[Sar][Aze][NPrPhe(4-CF3)][Sar][hPhe(3,5-F2-4-CF3)]P[αMeS](Allyl)[NMeGly(cPent)][NMeD]-Morpholide; lactam N-11) | C (A compound having a KD ratio of 0.1 or more and less than 3 is denoted as C) | B (a compound having 3 or more and less than 10 is denoted as B) | 36.3 |  |  |  | 
CCCN1C(=O)CN(C)C(=O)CN(C)C(=O)[C@H]([C@@H](C)CC)NC(=O)[C@H](CC(C)C)N(C)C(=O)C[C@@H](C(=O)N(C)C)NC(=O)[C@H](C2CCCC2)N(C)C(=O)C2(CCCC2)NC(=O)[C@@H]2CCCN2C(=O)[C@H](CCc2ccc(C(F)(F)F)c(Cl)c2)NC(=O)CN(C)C(=O)[C@@H]1Cc1ccc(C(F)(F)F)cc1 [PP0355] ([NMeL]I[Sar][Sar][NPrPhe(4-CF3)][Sar][hPhe(3-Cl-4-CF3)]P[Ac5c][NMeGly(cPent)]D-NMe2; lactam N-11) | B (a compound having 3 or more and less than 10 is denoted as B) | B (a compound having 3 or more and less than 10 is denoted as B) | 48.2 |  |  |  | 
CCCN1C(=O)[C@@H]2CCN2C(=O)[C@H](C)N(C)C(=O)[C@H](C2CCCC2)NC(=O)[C@H](CC(C)C)N(C)C(=O)C[C@@H](C(=O)N2CCOCC2)N(C)C(=O)[C@H](C2CCCC2)N(C)C(=O)C2(CCCC2)NC(=O)[C@@H]2CCCN2C(=O)[C@H](CCc2ccc(C(F)(F)F)c(Cl)c2)NC(=O)CN(C)C(=O)[C@@H]1Cc1ccc(C(F)(F)F)cc1 [PP0272] ([NMeL][Gly(cPent)][NMeA][Aze][NPrPhe(4-CF3)][Sar][hPhe(3-Cl-4-CF3)]P[Ac5c][NMeGly(cPent)][NMeD]-Morpholide; lactam N-11) | C (A compound having a KD ratio of 0.1 or more and less than 3 is denoted as C) | B (a compound having 3 or more and less than 10 is denoted as B) | 3.7 |  |  |  | 
CCO[C@@H]1C[C@H]2C(=O)NC3(CCC3)C(=O)N(C)[C@@H](C3CCCC3)C(=O)N(C)[C@H](C(=O)N(C)C)CC(=O)N(C)[C@H]3CCCCCc4ccc(cc4)C[C@@H](C(=O)N(C)CC(=O)N[C@@H](CCc4cc(F)c(C(F)(F)F)c(F)c4)C(=O)N2C1)N1CC/C=C\C[C@@H](C1=O)N(C)C(=O)CN(C)C(=O)[C@H]([C@@H](C)CC)NC3=O [PP2261] |  |  | 16.6 | A (a compound having 10 or more and less than 20 is denoted as A) | A (a compound having 10 or more and less than 20 is denoted as A) |  | 
CCCN1C(=O)CN(C)C(=O)CN(C)C(=O)[C@H]([C@@H](C)CC)NC(=O)[C@@H]2COCCCC[C@@](C)(NC(=O)[C@@H]3C[C@@H](OCC)CN3C(=O)[C@H](CCc3cc(F)c(C(F)(F)F)c(F)c3)NC(=O)CN(C)C(=O)[C@@H]1Cc1ccc(C(F)(F)F)cc1)C(=O)N(C)[C@@H](C1CCCC1)C(=O)N(C)[C@H](C(=O)N1CCOCC1)CC(=O)N2C [PP0899] | A (a compound having 10 or more and less than 20 is denoted as A) | B (a compound having 3 or more and less than 10 is denoted as B) | 923 |  |  |  | 
CC[C@H](C)[C@@H]1NC(=O)[C@H](C)N(C)C(=O)C[C@@H](C(=O)N(C)C)N(C)C(=O)[C@H](C2CCCC2)N(C)C(=O)C2(CCCC2)NC(=O)[C@@H]2CC(F)(F)CN2C(=O)[C@H](CCc2cc(F)c(C(F)(F)F)c(F)c2)NC(=O)CN(C)C(=O)[C@H](Cc2ccc(C(F)(F)F)cc2)N2CCCCC[C@@H](C2=O)N(C)C(=O)CN(C)C1=O [PP0472] |  |  | 24.4 | B (a compound having 3 or more and less than 10 is denoted as B) | B (a compound having 3 or more and less than 10 is denoted as B) |  | 
CCCOC[C@H]1C(=O)N[C@@H]([C@@H](C)CC)C(=O)N(C)CC(=O)N(C)[C@H]2C/C=C\CCN(C2=O)[C@@H](Cc2ccc(C(F)(F)F)cc2)C(=O)N(C)CC(=O)N[C@@H](CCc2cc(F)c(C(F)(F)F)c(F)c2)C(=O)N2C[C@H](OCC)C[C@H]2C(=O)NC2(CC(C)(C)C2)C(=O)N(C)[C@@H](C2CCCC2)C(=O)N(C)[C@H](C(=O)N(CC)CC)CC(=O)N1C [PP1575] |  |  | 11.1 |  |  | B (a compound having 3 or more and less than 10 is denoted as B) | B (a compound having 3 or more and less than 10 is denoted as B)
CCOC[C@H]1C(=O)N[C@@H]([C@@H](C)CC)C(=O)N(C)CC(=O)N(C)[C@H]2C/C=C\CCN(C2=O)[C@@H](Cc2ccc(C(F)(F)F)cc2)C(=O)N(C)CC(=O)N[C@@H](CCc2ccc(C(F)(F)F)c(OC)c2)C(=O)N2C[C@@H](C)C[C@H]2C(=O)NC2(CC(C)(C)C2)C(=O)N(C)[C@@H](C2CCCC2)C(=O)N(C)[C@H](C(=O)N(C)CC)CC(=O)N1C [PP1993] |  |  | 13.3 | A (a compound having 10 or more and less than 20 is denoted as A) | A (a compound having 10 or more and less than 20 is denoted as A) |  | 
CCO[C@@H]1C[C@H]2C(=O)NC3(CCC3)C(=O)N(C)[C@@H](C3CCCC3)C(=O)N(C)[C@H](C(=O)N(C)C)CC(=O)N(C)[C@@H](CC)C(=O)N[C@@H]([C@@H](C)CC)C(=O)N3CC[C@H]3C(=O)N(C)[C@H]3CC(C)=C(C)CN(C3=O)[C@@H](Cc3ccc(C(F)(F)F)cc3)C(=O)N(C)CC(=O)N[C@@H](CCc3cc(F)c(C(F)(F)F)c(F)c3)C(=O)N2C1 [PP1049] | C (A compound having a KD ratio of 0.1 or more and less than 3 is denoted as C) | C (A compound having a KD ratio of 0.1 or more and less than 3 is denoted as C) | 359 |  |  |  | 
CCOC[C@H]1C(=O)N[C@@H]([C@@H](C)CC)C(=O)N(C)CC(=O)N(C)[C@H]2C/C=C\CCN(C2=O)[C@@H](Cc2ccc(C(F)(F)F)cc2)C(=O)N(C)CC(=O)N[C@@H](CCc2ccc(C(F)(F)F)c(OC)c2)C(=O)N2C[C@@H](C)C[C@H]2C(=O)NC2(CCC2)C(=O)N(C)[C@@H](C2CCCC2)C(=O)N(C)[C@H](C(=O)N(C)CC)CC(=O)N1C [PP2026] |  |  | 22.6 | A (a compound having 10 or more and less than 20 is denoted as A) | A (a compound having 10 or more and less than 20 is denoted as A) |  | 
C=CC[C@H]1C(=O)N[C@@H]([C@@H](C)CC)C(=O)N(C)CC(=O)N(C)[C@H]2C/C=C\CCN(C2=O)[C@@H](Cc2ccc(C(F)(F)F)cc2)C(=O)N(C)CC(=O)N[C@@H](CCc2cc(F)c(C(F)(F)F)c(F)c2)C(=O)N2C[C@H](OCC)C[C@H]2C(=O)NC2(CCC2)C(=O)N(C)[C@@H](C2CCCC2)C(=O)N(C)[C@H](C(=O)N(C)C)CC(=O)N1C [PP1114] | A (a compound having 10 or more and less than 20 is denoted as A) | A (a compound having 10 or more and less than 20 is denoted as A) | 12.2 |  |  |  | 
CCC[C@@H]1C[C@H]2C(=O)NC3(CCC3)C(=O)N(C)[C@@H](C3CCCC3)C(=O)N(C)[C@H](C(=O)N(C)C)CC(=O)N(C)[C@@H](CC)C(=O)N[C@@H]([C@@H](C)CC)C(=O)N(C)CC(=O)N(C)[C@H]3C/C=C\CCN(C3=O)[C@@H](Cc3ccc(C)cc3)C(=O)N(C)CC(=O)N[C@@H](CCc3cc(F)c(C(F)(F)F)c(F)c3)C(=O)N2C1 [PP2233] |  |  | 27.6 | A (a compound having 10 or more and less than 20 is denoted as A) | A (a compound having 10 or more and less than 20 is denoted as A) |  | 
CCCN1C(=O)CN(C)C(=O)CNC(=O)[C@H]([C@@H](C)CC)NC(=O)[C@H](CC(C)C)N(C)C(=O)C[C@@H](C(=O)N(C)C)N(C)C(=O)[C@H](C2CCCC2)N(C)C(=O)C2(CCC2)NC(=O)[C@@H]2CCCN2C(=O)[C@H](CCc2ccc(C(F)(F)F)c(Cl)c2)NC(=O)CN(C)C(=O)[C@@H]1Cc1ccc(C(F)(F)F)cc1 [PP0418] ([NMeL]IG[Sar][NPrPhe(4-CF3)][Sar][hPhe(3-Cl-4-CF3)]P[Ac4c][NMeGly(cPent)][NMeD]-NMe2; lactam N-11) |  |  | 4.6 | B (a compound having 3 or more and less than 10 is denoted as B) | C (A compound having a KD ratio of 0.1 or more and less than 3 is denoted as C) |  | 
